Source: patent US20250325636A1, “USE OF ENDOTHELIN RECEPTOR TYPE B AGONISTS FOR THE TREATMENT OF AORTIC VALVE STENOSIS” (INSTITUT NATIONAL DE LA SANTÉ ET DE LA RECHERCHE MÉDICALE, priority 2022, published 2025)

Tested on: valvular interstitial cells (VIC)
Test: Calcium content of valvular interstitial cells cultured in pro-calcifying medium containing inorganic phosphate (o-cresolphtalein-based assay)
Format: cell-based, human
Conditions: VIC in procalcifying conditions containing inorganic phosphate (Pi), 10 days, compared to non-treated VIC
Protocol: Valvular endothelial cells (VEC), isolated from human aortic valves, were cultured in a cell perfusion system to assess ET-1 production in different fluid flow shear stress conditions. In addition, valvular interstitial cells (VIC) were cultured in a pro-calcifying culture medium containing inorganic phosphate (Pi) with or without antagonists of either the ETA or ETB receptor antagonists or with the agonist of the ETB receptor IRL 1620 during 10 days. Aortic valves from rats were also cultured in ex vivo and stimulated with ET-1 antagonists. Calcium content was assessed using an o-cresolphtalein-based assay and fluorescence by Osteosens. VEC prepro-ET-1 and VIC osteogenic mRNA expression levels were evaluated by RTqPCR.

N-Succinyl-[Glu9, Alal U5]-Endothelin 1 fragment 8-21 [IRL-1620]
Calcium content of VIC: decreased the calcium content of VIC
Calcium content of VIC (listed as IRL 1620): decreases their calcium content
